Assay results from patent publication US20150105252A1, “SUBSTITUTED PYRAZOLES AS HERBICIDES” (E I DU PONT DE NEMOURS AND COMPANY, priority 2013, published 2015).

Legend:
pigweed [1] = assay: Test A preemergence; type: in vivo, Amaranthus retroflexus; conditions: preemergence
Summary of the method: (§1)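 Greenhouse test in loam soil/sand blend; compounds formulated in non-phytotoxic solvent with surfactant, applied as preemergence directed soil spray or postemergence to plants 2–10 cm tall at one- to two-leaf stage. Injury rated visually versus untreated controls after approximately 10 days on a 0 (no effect) to 100 (complete control) scale.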

velvetleaf = assay: Test A preemergence; type: in vivo, Abutilon theophrasti; conditions: preemergence
Summary of the method: as §1

barnyardgrass = assay: Test B flood; type: in vivo, Echinochloa crus-galli; conditions: 250 g ai/ha, visual rating on 0 to 100 scale (0 no effect, 100 complete control), 13 to 15 days
Summary of the method: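 At two leaves, seedlings received the test compound via the paddy water, pots having been flooded 3 cm over the soil surface and kept so. Greenhouse-held for 13 to 15 days, then judged by eye against controls on a scale running 0 (no effect) to 100 (complete control).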

ryegrass, Italian = assay: Test C preemergence; type: in vivo, Lolium multiflorum; conditions: for Plant response rating (scale of 0 to 100), Ryegrass, Italian: Preemergence, 250 g ai/ha; for Ryegrass, Italian plant response rating / Plant response rating, Ryegrass, Italian: preemergence, 13 to 15 days; for Ryegrass, Italian plant response rating: scale 0 to 100 (0 no effect, 100 complete control); for Plant response rating, Ryegrass, Italian: 125 g ai/ha, scale 0 to 100, 0 = no effect, 100 = complete control
Summary of the method: (§2)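 Visual rating, 0–100 scale (0 no effect, 100 complete control), vs untreated controls after 13–15 d greenhouse. Pre: seeds in loam/sand, treated at sowing. Post: plants in peat-based mix, 1- to 4-leaf (2–18 cm). Solvent + surfactant formulation, non-phytotoxic.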

wheat [2] = assay: Test C preemergence; type: in vivo, Triticum aestivum; conditions: for Plant response rating (scale of 0 to 100), Wheat: Preemergence, 250 g ai/ha; for Wheat plant response rating / Plant response rating, Wheat: preemergence, 13 to 15 days; for Wheat plant response rating: scale 0 to 100 (0 no effect, 100 complete control); for Plant response rating, Wheat: 125 g ai/ha, scale 0 to 100, 0 = no effect, 100 = complete control
Summary of the method: as §2

galium = assay: Test C preemergence; type: in vivo, Galium aparine; conditions: for Plant response rating (scale of 0 to 100), Galium: Preemergence, 250 g ai/ha; for Galium plant response rating / Plant response rating, Galium: preemergence, 13 to 15 days; for Galium plant response rating: scale 0 to 100 (0 no effect, 100 complete control); for Plant response rating, Galium: 125 g ai/ha, scale 0 to 100, 0 = no effect, 100 = complete control
Summary of the method: as §2

oilseed rape = assay: Test C preemergence; type: in vivo, Brassica napus; conditions: for Plant response rating (scale of 0 to 100), Oilseed Rape: Preemergence, 250 g ai/ha; for Oilseed Rape plant response rating / Plant response rating, Oilseed Rape: preemergence, 13 to 15 days; for Oilseed Rape plant response rating: scale 0 to 100 (0 no effect, 100 complete control); for Plant response rating, Oilseed Rape: 125 g ai/ha, scale 0 to 100, 0 = no effect, 100 = complete control
Summary of the method: as §2

wheat [3] = assay: Test C postemergence; type: in vivo, Triticum aestivum; conditions: for Plant response rating (scale of 0 to 100 where 0 is no effect and 100 is complete control), Wheat: Postemergence, 31 g ai/ha, visually evaluated after 13 to 15 days; for Wheat plant response rating / Plant response rating, Wheat: postemergence; for Wheat plant response rating: 62 g ai/ha, scale 0 to 100
Summary of the method: as §2

corn = assay: Test C postemergence; type: in vivo, Zea mays; conditions: for Plant response rating (scale of 0 to 100 where 0 is no effect and 100 is complete control), Corn: Postemergence, 31 g ai/ha, visually evaluated after 13 to 15 days; for Corn plant response rating / Plant response rating, Corn: postemergence; for Corn plant response rating: 62 g ai/ha, scale 0 to 100
Summary of the method: as §2

johnsongrass = assay: Test C postemergence; type: in vivo, Sorghum halepense; conditions: for Plant response rating (scale of 0 to 100 where 0 is no effect and 100 is complete control), Johnsongrass: Postemergence, 31 g ai/ha, visually evaluated after 13 to 15 days; for Johnsongrass plant response rating / Plant response rating, Johnsongrass: postemergence; for Johnsongrass plant response rating: 62 g ai/ha, scale 0 to 100
Summary of the method: as §2

pigweed [4] = assay: Test C postemergence; type: in vivo, Amaranthus retroflexus; conditions: for Plant response rating (scale of 0 to 100 where 0 is no effect and 100 is complete control), Pigweed: Postemergence, 31 g ai/ha, visually evaluated after 13 to 15 days; for Pigweed plant response rating / Plant response rating, Pigweed: postemergence; for Pigweed plant response rating: 62 g ai/ha, scale 0 to 100
Summary of the method: as §2

ragweed = assay: Test C postemergence; type: in vivo, Ambrosia elation; conditions: for Plant response rating (scale of 0 to 100 where 0 is no effect and 100 is complete control), Ragweed: Postemergence, 31 g ai/ha, visually evaluated after 13 to 15 days; for Ragweed plant response rating / Plant response rating, Ragweed: postemergence; for Ragweed plant response rating: 62 g ai/ha, scale 0 to 100
Summary of the method: as §2

soybean = assay: Test C postemergence; type: in vivo, Glycine max; conditions: for Plant response rating (scale of 0 to 100 where 0 is no effect and 100 is complete control), Soybean: Postemergence, 31 g ai/ha, visually evaluated after 13 to 15 days; for Soybean plant response rating / Plant response rating, Soybean: postemergence; for Soybean plant response rating: 62 g ai/ha, scale 0 to 100
Summary of the method: as §2

chickweed = assay: Test C postemergence; type: in vivo, Stellaria media; conditions: for Plant response rating (scale of 0 to 100 where 0 is no effect and 100 is complete control), Chickweed: Postemergence, 31 g ai/ha, visually evaluated after 13 to 15 days; for Chickweed plant response rating / Plant response rating, Chickweed: postemergence; for Chickweed plant response rating: 62 g ai/ha, scale 0 to 100
Summary of the method: as §2

[5] = 125 g ai/ha, visual injury, 0 to 100 scale, approx. 10 days
[6] = 500 g ai/ha, visual injury after approx. 10 days, 0 to 100 scale (0 no effect, 100 complete control)
[7] = 250 g ai/ha, scale 0 to 100 (0 no effect, 100 complete control)
[8] = 125 g ai/ha, scale 0 to 100, 0 no effect, 100 complete control

`CCCc1cc(C(=O)NCC)nn1Cc1cc(C(F)(F)F)nn1C` [Compound 129] was tested, and the “Pigweed plant response rating” value (pigweed [1]; [5]) was 100, the “Pigweed plant response rating” value (pigweed [1]; [6]) was 100 and the “Velvetleaf plant response rating” value (velvetleaf; [5]) was 100. For the same molecule, the “Velvetleaf plant response rating” value (velvetleaf; [6]) was 100, the “Plant response rating, Barnyardgrass” value (barnyardgrass) was 40 and the “Plant response rating (scale of 0 to 100), Ryegrass, Italian” value (ryegrass, Italian) was 95. For the same molecule, the “Ryegrass, Italian plant response rating” value (ryegrass, Italian; 31 g ai/ha, visual rating) was 5, the “Ryegrass, Italian plant response rating” value (ryegrass, Italian; 62 g ai/ha) was 90 and the “Plant response rating, Ryegrass, Italian” value (ryegrass, Italian) was 95. For the same molecule, the “Plant response rating (scale of 0 to 100), Wheat” value (wheat [2]) was 90, the “Wheat plant response rating” value (wheat [2]; 31 g ai/ha, visual rating) was 0 and the “Wheat plant response rating” value (wheat [2]; 62 g ai/ha) was 35. For the same molecule, the “Plant response rating, Wheat” value (wheat [2]) was 85, the “Plant response rating (scale of 0 to 100), Galium” value (galium) was 100 and the “Galium plant response rating” value (galium; 31 g ai/ha, visual rating) was 100. For the same molecule, the “Galium plant response rating” value (galium; 62 g ai/ha) was 100, the “Plant response rating, Galium” value (galium) was 95 and the “Plant response rating (scale of 0 to 100), Oilseed Rape” value (oilseed rape) was 100. For the same molecule, the “Oilseed Rape plant response rating” value (oilseed rape; 31 g ai/ha, visual rating) was 95, the “Oilseed Rape plant response rating” value (oilseed rape; 62 g ai/ha) was 95 and the “Plant response rating, Oilseed Rape” value (oilseed rape) was 100. The “Plant response rating (scale of 0 to 100 where 0 is no effect and 100 is complete control), Wheat” value (wheat [3]) was 0, the “Wheat plant response rating” value (wheat [3]) was 5 and the “Plant response rating, Wheat” value (wheat [3]; [7]) was 5. For the same molecule, the “Plant response rating, Wheat” value (wheat [3]; [8]) was 5, the “Plant response rating (scale of 0 to 100 where 0 is no effect and 100 is complete control), Corn” value (corn) was 10 and the “Corn plant response rating” value (corn) was 10. The “Plant response rating, Corn” value (corn; [7]) was 15, the “Plant response rating, Corn” value (corn; [8]) was 15 and the “Plant response rating (scale of 0 to 100 where 0 is no effect and 100 is complete control), Johnsongrass” value (johnsongrass) was 5. For the same molecule, the “Johnsongrass plant response rating” value (johnsongrass) was 10, the “Plant response rating, Johnsongrass” value (johnsongrass; [7]) was 10 and the “Plant response rating, Johnsongrass” value (johnsongrass; [8]) was 10. The “Plant response rating (scale of 0 to 100 where 0 is no effect and 100 is complete control), Pigweed” value (pigweed [4]) was 85, the “Pigweed plant response rating” value (pigweed [4]) was 95 and the “Plant response rating, Pigweed” value (pigweed [4]; [7]) was 95. For the same molecule, the “Plant response rating, Pigweed” value (pigweed [4]; [8]) was 100, the “Plant response rating (scale of 0 to 100 where 0 is no effect and 100 is complete control), Ragweed” value (ragweed) was 55 and the “Ragweed plant response rating” value (ragweed) was 90. The “Plant response rating, Ragweed” value (ragweed; [7]) was 85, the “Plant response rating, Ragweed” value (ragweed; [8]) was 75 and the “Plant response rating (scale of 0 to 100 where 0 is no effect and 100 is complete control), Soybean” value (soybean) was 85. The “Soybean plant response rating” value (soybean) was 98, the “Plant response rating, Soybean” value (soybean; [7]) was 98 and the “Plant response rating, Soybean” value (soybean; [8]) was 98. The “Plant response rating (scale of 0 to 100 where 0 is no effect and 100 is complete control), Chickweed” value (chickweed) was 50, the “Chickweed plant response rating” value (chickweed) was 70 and the “Plant response rating, Chickweed” value (chickweed; [7]) was 100. The “Plant response rating, Chickweed” value (chickweed; [8]) was 80.
`CCNC(=O)c1cc(CC)n(Cc2ccnc(OC(F)F)c2)n1` [Compound 130] was tested, and the “Pigweed plant response rating” value (pigweed [1]; [5]) was 100, the “Pigweed plant response rating” value (pigweed [1]; [6]) was 100 and the “Velvetleaf plant response rating” value (velvetleaf; [5]) was 70. For the same molecule, the “Velvetleaf plant response rating” value (velvetleaf; [6]) was 100, the “Plant response rating, Barnyardgrass” value (barnyardgrass) was 40 and the “Plant response rating (scale of 0 to 100), Ryegrass, Italian” value (ryegrass, Italian) was 98. For the same molecule, the “Ryegrass, Italian plant response rating” value (ryegrass, Italian; 31 g ai/ha, visual rating) was 5, the “Ryegrass, Italian plant response rating” value (ryegrass, Italian; 62 g ai/ha) was 25 and the “Plant response rating, Ryegrass, Italian” value (ryegrass, Italian) was 65. The “Plant response rating (scale of 0 to 100), Wheat” value (wheat [2]) was 95, the “Wheat plant response rating” value (wheat [2]; 31 g ai/ha, visual rating) was 0 and the “Wheat plant response rating” value (wheat [2]; 62 g ai/ha) was 35. For the same molecule, the “Plant response rating, Wheat” value (wheat [2]) was 40, the “Plant response rating (scale of 0 to 100), Galium” value (galium) was 100 and the “Galium plant response rating” value (galium; 31 g ai/ha, visual rating) was 75. For the same molecule, the “Galium plant response rating” value (galium; 62 g ai/ha) was 85, the “Plant response rating, Galium” value (galium) was 98 and the “Plant response rating (scale of 0 to 100), Oilseed Rape” value (oilseed rape) was 100. For the same molecule, the “Oilseed Rape plant response rating” value (oilseed rape; 31 g ai/ha, visual rating) was 75, the “Oilseed Rape plant response rating” value (oilseed rape; 62 g ai/ha) was 98 and the “Plant response rating, Oilseed Rape” value (oilseed rape) was 98. The “Plant response rating (scale of 0 to 100 where 0 is no effect and 100 is complete control), Wheat” value (wheat [3]) was 0, the “Wheat plant response rating” value (wheat [3]) was 0 and the “Plant response rating, Wheat” value (wheat [3]; [7]) was 5. For the same molecule, the “Plant response rating, Wheat” value (wheat [3]; [8]) was 5, the “Plant response rating (scale of 0 to 100 where 0 is no effect and 100 is complete control), Corn” value (corn) was 5 and the “Corn plant response rating” value (corn) was 5. The “Plant response rating, Corn” value (corn; [7]) was 25, the “Plant response rating, Corn” value (corn; [8]) was 5 and the “Plant response rating (scale of 0 to 100 where 0 is no effect and 100 is complete control), Johnsongrass” value (johnsongrass) was 0. The “Johnsongrass plant response rating” value (johnsongrass) was 5, the “Plant response rating, Johnsongrass” value (johnsongrass; [7]) was 10 and the “Plant response rating, Johnsongrass” value (johnsongrass; [8]) was 5. The “Plant response rating (scale of 0 to 100 where 0 is no effect and 100 is complete control), Pigweed” value (pigweed [4]) was 30, the “Pigweed plant response rating” value (pigweed [4]) was 65 and the “Plant response rating, Pigweed” value (pigweed [4]; [7]) was 85. For the same molecule, the “Plant response rating, Pigweed” value (pigweed [4]; [8]) was 50, the “Plant response rating (scale of 0 to 100 where 0 is no effect and 100 is complete control), Ragweed” value (ragweed) was 30 and the “Ragweed plant response rating” value (ragweed) was 35. For the same molecule, the “Plant response rating, Ragweed” value (ragweed; [7]) was 85, the “Plant response rating, Ragweed” value (ragweed; [8]) was 45 and the “Plant response rating (scale of 0 to 100 where 0 is no effect and 100 is complete control), Soybean” value (soybean) was 70. The “Soybean plant response rating” value (soybean) was 80, the “Plant response rating, Soybean” value (soybean; [7]) was 98 and the “Plant response rating, Soybean” value (soybean; [8]) was 65. For the same molecule, the “Plant response rating (scale of 0 to 100 where 0 is no effect and 100 is complete control), Chickweed” value (chickweed) was 65, the “Chickweed plant response rating” value (chickweed) was 70 and the “Plant response rating, Chickweed” value (chickweed; [7]) was 75. For the same molecule, the “Plant response rating, Chickweed” value (chickweed; [8]) was 75.
